# Patent US7786257B2, “Signal-1/signal-2 bifunctional peptide inhibitors” (priority 2000, dated 2010)
# Entries after “also recorded” stand apart in the source; their conditions may differ. Where no end group is shown, it is not given here. [ ]: non-standard residue; d: D form. Ahx = NCCCCCC(=O)O
# What was measured:
# NOD mice = test: Lymphocytic infiltration of pancreatic islets (insulitis) in NOD mice, histological scoring; format: in vivo, mouse
# Excerpt: To evaluate the disease process by immunohistology (see, e.g., FIG. 12A-D), spleen, pancreas, or other target organs, e.g., the CNS for the MDP peptide BPI, or lung for the RSV peptide BPI, were removed from euthanized mice of each group and prepared for histology by fixing in neutral buffered formalin and embedding in paraffin, or snap frozen in O.C.T. medium. For scoring inflammation, minimums of five sections from each mouse were used to assess the blocking affect of a given BPI. For characterization of standard T-cell markers on cellular infiltrates, biotinylated mAb to various cell surface antigens will be incubated individually with the Cryostat sections (2 hours), followed by avidin-alkaline phosphatase (Vector laboratories). Alternatively, cell subsets will be phenotyped by standard flow cytometry methods as described in Murray et al., 24 Eur. J. Immunol. 2337-2344 (1994); Murray; 19 Immunology Today 157-163; and Schountz et al., 157 The Journal of Immunology 3893-3901 (1996). Finally, the students t-test or ANOVA will be used to estimate the statistical significance of differences observed between groups and individual mice.
# These studies sought to confirm that the BPI containing the immunodominant GAD65 TCR epitope (EGAD-BPI) was biologically active in vivo and inhibited the development of pancreatic inflammation. Groups of three normal glycemic NOD males (8 weeks old) were immunized with the GAD65 (208-217) peptide in CFA as described in Example 4. The control group received PBS, and separate experimental groups received either the EGAD-BPI, the GAD peptide alone (i.e., the T-cell receptor epitope), or the CD11a peptide alone(i.e., the second signal receptor moiety) by two intravenous injections as described in Example 4. On day 10, the pancreata were removed to 10% PBS-buffered formalin, embedded in paraffin, and five-micron serial sections were examined histologically for mononuclear cell infiltration as previously described by Yoon, et al., Control of Autoimmune Diabetes in NOD Mice by GAD Expression or Suppression in β Cells, 284 Science 1183-1187 (1999), the entirety of which is hereby incorporated by reference.
# [1] = test system: live APC (spleenocytes) from NOD (I-A^g7), BALB/c, A.SW, A.BY mice; test: Flow cytometry of biotinylated peptide binding to live APC (spleenocytes) of inbred mouse strains; settings: for percentage of high-density binding cells: biotinylated peptide 50 μM, overnight; for preferential binding to NOD APC compared with other strains (BALB/c, A.SW, A.BY): biotinylated peptide, live spleenocytes, flow cytometry
# Protocol: Specifically, it was verified that the peptide binds to MHC molecules on live APC. Briefly, spleen cell density-gradient fractions (from mice), or PBL, or APC lines (from humans) were incubated in round bottom 96-well plates with increasing concentrations of individual biotinylated peptides at 37° C., 5% CO2 for 16 hours. Following binding of the BPI to the APC, Avidin-FITC was incubated with the cells on ice for 30 minutes, followed by biotinylated anti-Avidin for 1 hour, then again with Avidin-FITC. For BPI titrations, increasing concentrations (0.1-100 μM) of the biotinylated derivatives in sterile 0.5% BSA-PBS were incubated with the APC for 16 hours as above. […] Three-color analyses used Cy-Chrome or PE-conjugated antibodies to known surface markers of APC that were commercially available. Avidin-FITC and biotinylated anti-Avidin detection of the bound peptide was as previously described in Murray et al., 24 Eur. J. Immunol. 2337-2344 (1994); Murray; 19 Immunology Today 157-163; and Schountz et al., 157 The Journal of Immunology 3893-3901 (1996). Slight modifications of this method were used to test peptide inhibition (i.e., peptide affinity) and co-capping to the MHC and ICAM molecules directly on the live APC surface. […] Unlabeled peptide was used in a competition assay to derive the relative affinity of the BPI for the APC and the ability of the BPI to crosslink the MHC and ICAM molecules on the APC was examined by cocapping ICAM with an anti-MHC mAb. Here, cells were incubated with the BPI. Next, an anti-MHC mAb was added. After 30 minutes at 37° C., the cells were transferred to ice and stained with PE-labeled anti-ICAM (FIG. 7).
# To obtain biotinylated BPI, the synthesized EGAD BPI was biotinylated with NHS-Biotin as described in Murray et al., 24 Eur. J. Immunol. 2337-2344 (1994). Spleen cell density-gradient fractions from normal (unimmunized) NOD, BALB/c and other MHC congenic strains were incubated in round bottom 96-well plates with increasing concentrations of individual biotinylated peptides at 37° C., 5% CO2 for 16 hours. Following binding of the BPI to the APC, Avidin-FITC was incubated with the cells on ice for 30 minutes, followed bybiotinylated anti-Avidin for 1 hour, then again with Avidin-FITC. For BPI titrations, increasing concentrations (0.1-100 μM) of the biotinylated derivatives in sterile 0.5% BSA-PBS were incubated with the APC for 16 hours as above. Three-color analyses used Cy-Chrome or PE-conjugated anti-B220 (mAb RA3-6B2 (CD45R B-cell marker), anti-MHC class II (KH74 or 10-3.62 mAb), or anti-ICAM-1 (3E2 mAb); (all purchased from PharMingen, San Diego, Calif.). Bound peptide was detected with avidin-FITC/biotinylated anti-avidin/avidin-FITC on live cells gated by forward/side scatter analysis. Controls contained all detecting reagents in absence of the biotinylated peptide; 20,000 events were analyzed for each histogram with a FACScan (Becton-Dickinson) flow cytometer.
# To verify antigenic peptide binding to live APC, initial EGAD-BPI were screened for selective binding to NOD (I-A^g7) APC and assayed for simultaneous binding using monoclonal antibodies against either MHC-II or ICAM-1 by flow cytometry methods using live APC (Murray et al., 24 Eur. J. Immunol. 2337-2344 (1994); Murray; 19 Immunology Today 157-163; and Schountz et al., 157 The Journal of Immunology 3893-3901 (1996)). In this assay, increasing concentrations of the biotinylated-BPI, -CD11a(237-247) or -GAD65(208-217) peptide were incubated overnight with spleenocytes from each inbred strain. Bound peptide was detected with amplification of avidin-FITC fluorescence by the use of a biotinylated anti-avidin reagent, followed by a second round of avidin-FITC binding. Biotinylated peptide was incubated with 10^6 viable cells at a peptide concentrations of 50 μM. Bound peptide was detected with avidin-FITC/biotinylated anti-avidin-FITC. […]
substance,measurement,setting,value
GAD65(208-217)-[Ac-G-Ac-G-Ac]-CD11a (237-247) (EIAPVFVLLE[Ahx]G[Ahx]G[Ahx]ITDGEATDSG) [EGAD-BPI],"intact / normal islets without infiltration (grade-0 islets), percentage of islets examined","NOD mice; NOD males, GAD65 peptide in CFA, two i.v. injections of 40 nanomoles, day 10",Over 95%
same,"mononuclear cell infiltration of islets (insulitis), in words","NOD mice; NOD males, day 10, histology",clear inhibitory effect; also recorded: predominately intact
same,inhibition of insulitis,"NOD mice; compared to the PBS control, calculated from % islets at grade 1-4",84%
same,percentage of high-density binding cells,[1]; A.BY spleenocytes,6%
same,percentage of high-density binding cells,[1]; NOD spleenocytes,30%
same,"preferential binding to NOD APC compared with other strains (BALB/c, A.SW, A.BY)",[1],higher density
same,"preferential binding to NOD APC compared with other strains (BALB/c, A.SW, A.BY)",[1]; listed as GAD 65 BPI,binds preferentially to NOD APC
